Results from patent US20260372303A1, “5-Fluoro-4-Imino-3-Methyl-1-Tosyl-3, 4-Dihydropyrimidin-2(1H) -One for Fungicide-Resistant Fungus” (priority 2022, published 2026).

What was measured:
Assay type in all cases: in vivo
[1] = test system: Zymoseptoria tritici strain Zt StA; experiment: In planta preventive efficacy on wheat cv. Alixan against Zymoseptoria tritici strain Zt StA (control strain, sensitive); conditions: for Disease Severity Intensity: % of length of 2nd leaf blade, preventive 24 h; for AUDPC: control 781.6
Procedure: (§1) A series of experiments were conducted to evaluate the efficacy of flumetylsulforim (ADF-16) for treating different strains of Zymoseptoria tritici in comparison with commercially available fungicides. Table 1 describes the Z. tritici strains used in this study and Table 2 describes the fungicides used in this study.
(§2) Winter wheat plants cv. Alixan (Limagrain) at the BBCH 12 growth stage were treated preventively with sterile distilled water (control), ADF-16, penthiopyrad, metconazole or tebuconazole at the rates described in Table 2 with a hand sprayer at 2 bars.
(§3) After treatment, wheat plants were left to dry at room temperature for 1 hour and then placed in a climatic chamber: temperature of 24 °C day/18 °C night-photoperiod of 16 h light/8 h dark and a relative humidity of 65%.
(§4) Untreated or treated whole wheat plants were inoculated 24-hours post-treatment with a calibrated pycnospore suspension of Z. tritici strains Zt StA, Zt 61, Zt 99, Zt 20, Zt 19-52, and Zt 38-02. Three replicates (pots) of 6 wheat plants each were used for each condition tested.
(§5) After inoculation, pots were transferred in a climatic chamber: temperature of 20 °C day/17 °C night—photoperiod of 16 h light/8 h dark and controlled relative humidity.
(§6) Disease assessments were carried out at 15 days post inoculation (dpi), 21 dpi and 28 dpi by measuring the length of the necrosis on the second leaf blade. The intensity of infection was then determined as a percentage of the total length of 2nd leaf blade.
(§7) The fungicide efficacies were determined from the Area Under the Disease Progress Curve (AUDPC) values and expressed as a percentage of the untreated control.
(§8) The AUDPC is a quantitative measure of disease intensity over time. The most commonly used method for estimating the AUDPC, the trapezoidal method, is performed by multiplying the average disease intensity between each pair of adjacent timepoints by the corresponding time interval and this for each time interval. The AUDPC is determined with the following formula by adding all of the trapezoids:
(§9) [formula] • yi=disease severity at the ith observation • ti=time (days) at the ith observation • N=total number of observations

[2] = test system: Zymoseptoria tritici strain Zt 61; experiment: In planta preventive efficacy on wheat cv. Alixan against Zymoseptoria tritici strain Zt 61; parameters: fungicide efficacy: concentration or dose not given beside the values; conditions: for Disease Severity Intensity: % of length of 2nd leaf blade, preventive 24 h; for AUDPC: control 1194.9
Procedure: as §1, §2, §3, §4, §5, §6, §7, §8, §9

[3] = test system: Zymoseptoria tritici strain Zt 99; experiment: In planta preventive efficacy on wheat cv. Alixan against Zymoseptoria tritici strain Zt 99; conditions: for Disease Severity Intensity: % of length of 2nd leaf blade, preventive 24 h; for AUDPC: control 1352.9
Procedure: as §1, §2, §3, §4, §5, §6, §7, §8, §9

[4] = test system: Zymoseptoria tritici strain Zt 19-52; experiment: In planta preventive efficacy on wheat cv. Alixan against Zymoseptoria tritici strain Zt 19-52; conditions: % of length of 2nd leaf blade, preventive 24 h
Procedure: as §1, §2, §3, §4, §5, §6, §7, §8, §9

[5] = test system: Zymoseptoria tritici strain Zt 20; experiment: In planta preventive efficacy on wheat cv. Alixan against Zymoseptoria tritici strain Zt 20; conditions: % of length of 2nd leaf blade, preventive 24 h
Procedure: as §1, §2, §3, §4, §5, §6, §7, §8, §9

[6] = test system: Zymoseptoria tritici strain Zt 38-02; experiment: In planta preventive efficacy on wheat cv. Alixan against Zymoseptoria tritici strain Zt 38-02; conditions: for Disease Severity Intensity: % of length of 2nd leaf blade, preventive 24 h; for AUDPC: control 1261.4
Procedure: as §1, §2, §3, §4, §5, §6, §7, §8, §9

[7] = 15 dpi, rate N (g a.i./ha): ADF-16 100, penthiopyrad 200, metconazole 90, tebuconazole 250, control also no disease
[8] = 15 dpi, rate N/2.5 (g a.i./ha): ADF-16 40, penthiopyrad 80, metconazole 36, tebuconazole 100, control also no disease
[9] = rate N (g a.i./ha): ADF-16 100, penthiopyrad 200, metconazole 90, tebuconazole 250
[10] = rate N/2.5 (g a.i./ha): ADF-16 40, penthiopyrad 80, metconazole 36, tebuconazole 100

`CC(C)CC(C)c1sccc1NC(=O)c1cn(C)nc1C(F)(F)F` (stereo not drawn) [Penthiopyrad] was tested, and the “Disease Severity Intensity” value [1, 7] was “No disease”, the “Disease Severity Intensity” value [1, 8] was “No disease” and the “Disease Severity Intensity” value ([1]; 21 dpi, rate N (g a.i./ha): ADF-16 100, penthiopyrad 200, metconazole 90, tebuconazole 250, control 36.5) was 0.0 +/− 0.0b %. The “Disease Severity Intensity” value ([1]; 21 dpi, rate N/2.5 (g a.i./ha): ADF-16 40, penthiopyrad 80, metconazole 36, tebuconazole 100, control 36.5) was 0.0 +/− 0.0b %, the “Disease Severity Intensity” value ([1]; 28 dpi, rate N (g a.i./ha): ADF-16 100, penthiopyrad 200, metconazole 90, tebuconazole 250, control 77.4) was 0.0 +/− 0.0b % and the “Disease Severity Intensity” value ([1]; 28 dpi, rate N/2.5 (g a.i./ha): ADF-16 40, penthiopyrad 80, metconazole 36, tebuconazole 100, control 77.4) was 0.0 +/− 0.0b %. For the same compound, the “Efficacy (from AUDPC, percentage of the untreated control)” value [1, 9] was 100%, the AUDPC [1, 9] was 0.0 +/− 0.0b and the “Efficacy (from AUDPC, percentage of the untreated control)” value [1, 10] was 100%. The AUDPC [1, 10] was 0.0 +/− 0.0b, the “Disease Severity Intensity” value [2, 7] was “No disease” and the “Disease Severity Intensity” value [2, 8] was “No disease”. For the same compound, the “Disease Severity Intensity” value ([2]; 21 dpi, rate N (g a.i./ha): ADF-16 100, penthiopyrad 200, metconazole 90, tebuconazole 250, control 63.3) was 1.2 +/− 0.5d %, the “Disease Severity Intensity” value ([2]; 21 dpi, rate N/2.5 (g a.i./ha): ADF-16 40, penthiopyrad 80, metconazole 36, tebuconazole 100, control 63.3) was 19.9 +/− 3.8b % and the “Disease Severity Intensity” value ([2]; 28 dpi, rate N (g a.i./ha): ADF-16 100, penthiopyrad 200, metconazole 90, tebuconazole 250, control 88.1) was 18.2 +/− 2.8e %. The “Disease Severity Intensity” value ([2]; 28 dpi, rate N/2.5 (g a.i./ha): ADF-16 40, penthiopyrad 80, metconazole 36, tebuconazole 100, control 88.1) was 74.3 +/− 2.3b %, the fungicide efficacy ([2]; higher application rates (N)) was no less than 85% and the fungicide efficacy ([2]; lower application rates (N/2.5)) was no more than 70%. For the same compound, the “Efficacy (from AUDPC, percentage of the untreated control)” value [2, 9] was 93.3%, the AUDPC [2, 9] was 80.2 ± 9.8 days and the “Efficacy (from AUDPC, percentage of the untreated control)” value [2, 10] was 55.0%. For the same compound, the AUDPC [2, 10] was 537.9 +/− 53.2b, the “Disease Severity Intensity” value ([3]; 15 dpi, rate N (g a.i./ha): ADF-16 100, penthiopyrad 200, metconazole 90, tebuconazole 250, control 47.9) was 12.9 +/− 2.1c % and the “Disease Severity Intensity” value ([3]; 15 dpi, rate N/2.5 (g a.i./ha): ADF-16 40, penthiopyrad 80, metconazole 36, tebuconazole 100, control 47.9) was 27.5 +/− 2.2b %. The “Disease Severity Intensity” value ([3]; 21 dpi, rate N (g a.i./ha): ADF-16 100, penthiopyrad 200, metconazole 90, tebuconazole 250, control 81.0) was 70.2 +/− 2.8b %, the “Disease Severity Intensity” value ([3]; 21 dpi, rate N/2.5 (g a.i./ha): ADF-16 40, penthiopyrad 80, metconazole 36, tebuconazole 100, control 81.0) was 72.0 +/− 3.6b % and the “Disease Severity Intensity” value ([3]; 28 dpi, rate N (g a.i./ha): ADF-16 100, penthiopyrad 200, metconazole 90, tebuconazole 250, control 92.2) was 90.6 +/− 1.7ab %. The “Disease Severity Intensity” value ([3]; 28 dpi, rate N/2.5 (g a.i./ha): ADF-16 40, penthiopyrad 80, metconazole 36, tebuconazole 100, control 92.2) was 90.9 +/− 1.6ab %, the “Efficacy (from AUDPC, percentage of the untreated control)” value [3, 9] was 32.9% and the AUDPC [3, 9] was 908.4 +/− 11.3c. For the same compound, the “Efficacy (from AUDPC, percentage of the untreated control)” value [3, 10] was 20.4%, the AUDPC [3, 10] was 1076.9 +/− 17.9b and the “Disease Severity Intensity” value ([4]; 15 dpi, rate N (g a.i./ha): ADF-16 100, penthiopyrad 200, metconazole 90, tebuconazole 250, control 22.0) was 0.0 +/− 0.0b %. For the same compound, the “Disease Severity Intensity” value ([4]; 15 dpi, rate N/2.5 (g a.i./ha): ADF-16 40, penthiopyrad 80, metconazole 36, tebuconazole 100, control 22.0) was 0.0 +/− 0.0b %, the “Disease Severity Intensity” value ([4]; 21 dpi, rate N (g a.i./ha): ADF-16 100, penthiopyrad 200, metconazole 90, tebuconazole 250, control 81.7) was 0.0 +/− 0.0c % and the “Disease Severity Intensity” value ([4]; 21 dpi, rate N/2.5 (g a.i./ha): ADF-16 40, penthiopyrad 80, metconazole 36, tebuconazole 100, control 81.7) was 0.0 +/− 0.0c %. For the same compound, the “Disease Severity Intensity” value ([4]; 28 dpi, rate N (g a.i./ha): ADF-16 100, penthiopyrad 200, metconazole 90, tebuconazole 250, control 91.0) was 0.0 +/− 0.0f %, the “Disease Severity Intensity” value ([4]; 28 dpi, rate N/2.5 (g a.i./ha): ADF-16 40, penthiopyrad 80, metconazole 36, tebuconazole 100, control 91.0) was 2.0 +/− 0.8e % and the “Disease Severity Intensity” value [5, 7] was “No disease”. For the same compound, the “Disease Severity Intensity” value [5, 8] was “No disease”, the “Disease Severity Intensity” value ([5]; 21 dpi, rate N (g a.i./ha): ADF-16 100, penthiopyrad 200, metconazole 90, tebuconazole 250, control 77.2) was 0.3 +/− 0.3e % and the “Disease Severity Intensity” value ([5]; 21 dpi, rate N/2.5 (g a.i./ha): ADF-16 40, penthiopyrad 80, metconazole 36, tebuconazole 100, control 77.2) was 0.0 +/− 0.0e %. The “Disease Severity Intensity” value ([5]; 28 dpi, rate N (g a.i./ha): ADF-16 100, penthiopyrad 200, metconazole 90, tebuconazole 250, control 95.5) was 1.2 +/− 0.6g %, the “Disease Severity Intensity” value ([5]; 28 dpi, rate N/2.5 (g a.i./ha): ADF-16 40, penthiopyrad 80, metconazole 36, tebuconazole 100, control 95.5) was 2.0 +/− 1.4g % and the “Disease Severity Intensity” value ([6]; 15 dpi, rate N (g a.i./ha): ADF-16 100, penthiopyrad 200, metconazole 90, tebuconazole 250, control 36.0) was 0.0 +/− 0.0b %. For the same compound, the “Disease Severity Intensity” value ([6]; 15 dpi, rate N/2.5 (g a.i./ha): ADF-16 40, penthiopyrad 80, metconazole 36, tebuconazole 100, control 36.0) was 0.0 +/− 0.0b %, the “Disease Severity Intensity” value ([6]; 21 dpi, rate N (g a.i./ha): ADF-16 100, penthiopyrad 200, metconazole 90, tebuconazole 250, control 84.3) was 10.9 +/− 2.1e % and the “Disease Severity Intensity” value ([6]; 21 dpi, rate N/2.5 (g a.i./ha): ADF-16 40, penthiopyrad 80, metconazole 36, tebuconazole 100, control 84.3) was 70.7 +/− 3.3b %. The “Disease Severity Intensity” value ([6]; 28 dpi, rate N (g a.i./ha): ADF-16 100, penthiopyrad 200, metconazole 90, tebuconazole 250, control 95.7) was 54.9 +/− 3.2d %, the “Disease Severity Intensity” value ([6]; 28 dpi, rate N/2.5 (g a.i./ha): ADF-16 40, penthiopyrad 80, metconazole 36, tebuconazole 100, control 95.7) was 86.5 +/− 2.1c % and the “Efficacy (from AUDPC, percentage of the untreated control)” value [6, 9] was 79.2%. For the same compound, the AUDPC [6, 9] was 262.9 ± 12.5 days, the “Efficacy (from AUDPC, percentage of the untreated control)” value [6, 10] was 39.5% and the AUDPC [6, 10] was 763.1 +/− 4.4b.
